For seven molecules, % of control, % of inhibition and % of engagement results are on record in ChEMBL document CHEMBL5465560, “Selectivity Literature for EUbOPEN Chemogenomic Library” (2024).

Test [1] concerns the target Serine/threonine-protein kinase pim-1 (Homo sapiens, UniProt P11309). The test can be described thus: Selectivity interaction (Millipore kinase profiler) EUB0000124b PIM1. The settings on record: at 10 µM.
The target of test [2] is Serine/threonine-protein kinase 35 (Homo sapiens) (UniProt Q8TDR2). The test can be described thus: Selectivity interaction (KinomeScan (DiscoverX)) EUB0001049a STK35. The settings on record: at 1 µM.
The target of test [3] is T1, Dual specificity mitogen-activated protein kinase kinase 6 (Homo sapiens) (UniProt P52564).
T1 sequence (whole entry): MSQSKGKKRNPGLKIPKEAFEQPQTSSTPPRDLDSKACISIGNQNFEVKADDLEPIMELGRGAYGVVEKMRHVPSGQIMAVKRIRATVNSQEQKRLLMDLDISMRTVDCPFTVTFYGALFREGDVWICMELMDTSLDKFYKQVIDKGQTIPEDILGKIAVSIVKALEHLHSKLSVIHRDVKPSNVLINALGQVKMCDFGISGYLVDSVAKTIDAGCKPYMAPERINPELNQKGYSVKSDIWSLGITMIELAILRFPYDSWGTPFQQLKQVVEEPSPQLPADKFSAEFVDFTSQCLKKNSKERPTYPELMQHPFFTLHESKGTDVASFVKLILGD
The test can be described thus: Selectivity interaction (Kinase screening (Upstate/Millipore)) EUB0000604a MAP2K6.

Test [4] deals with T2, Serine/threonine-protein kinase LATS1 (Homo sapiens) (UniProt O95835).
T2 sequence (whole entry): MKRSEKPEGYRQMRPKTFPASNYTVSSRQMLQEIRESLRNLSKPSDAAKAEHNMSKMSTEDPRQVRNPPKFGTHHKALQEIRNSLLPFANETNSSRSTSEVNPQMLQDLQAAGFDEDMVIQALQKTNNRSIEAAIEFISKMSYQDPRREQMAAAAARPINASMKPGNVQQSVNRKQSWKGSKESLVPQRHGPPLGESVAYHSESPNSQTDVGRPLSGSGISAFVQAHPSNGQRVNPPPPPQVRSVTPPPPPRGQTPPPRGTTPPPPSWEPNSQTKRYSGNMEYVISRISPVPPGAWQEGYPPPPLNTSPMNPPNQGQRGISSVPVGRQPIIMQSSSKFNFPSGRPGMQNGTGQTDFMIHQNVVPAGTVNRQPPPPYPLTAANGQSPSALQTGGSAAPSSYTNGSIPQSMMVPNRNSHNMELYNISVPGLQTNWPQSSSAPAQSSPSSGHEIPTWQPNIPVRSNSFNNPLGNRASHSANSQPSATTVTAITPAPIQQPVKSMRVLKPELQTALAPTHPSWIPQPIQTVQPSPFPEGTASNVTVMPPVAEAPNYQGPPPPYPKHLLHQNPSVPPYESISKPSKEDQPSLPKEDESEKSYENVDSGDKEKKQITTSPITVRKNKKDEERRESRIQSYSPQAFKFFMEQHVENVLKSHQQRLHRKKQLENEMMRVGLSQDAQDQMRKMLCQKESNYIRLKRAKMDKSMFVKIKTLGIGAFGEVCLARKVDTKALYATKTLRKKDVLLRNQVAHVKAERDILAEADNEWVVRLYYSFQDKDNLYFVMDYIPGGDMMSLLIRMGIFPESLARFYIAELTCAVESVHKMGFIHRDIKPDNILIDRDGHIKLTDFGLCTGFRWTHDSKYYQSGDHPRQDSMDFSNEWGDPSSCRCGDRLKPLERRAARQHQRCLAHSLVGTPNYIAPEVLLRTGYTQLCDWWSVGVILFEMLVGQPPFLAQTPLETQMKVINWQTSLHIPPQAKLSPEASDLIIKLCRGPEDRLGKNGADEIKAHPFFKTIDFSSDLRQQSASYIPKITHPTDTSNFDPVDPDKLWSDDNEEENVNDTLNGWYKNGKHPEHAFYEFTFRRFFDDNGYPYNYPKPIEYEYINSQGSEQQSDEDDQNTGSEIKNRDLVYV
In words: Selectivity interaction (KinomeScan (DiscoverX)) EUB0000607a LATS1. The settings on record: at 10 µM.

Test [5] deals with Serine/threonine-protein kinase Nek4 (Homo sapiens) (UniProt P51957). In words: Selectivity interaction (SelectScreen profiling (Invitrogen)) EUB0000607a NEK4. The settings on record: at 2 µM.
In test [6] the target is T3, Ephrin type-B receptor 6 (Homo sapiens) (UniProt O15197).
T3 sequence (whole entry): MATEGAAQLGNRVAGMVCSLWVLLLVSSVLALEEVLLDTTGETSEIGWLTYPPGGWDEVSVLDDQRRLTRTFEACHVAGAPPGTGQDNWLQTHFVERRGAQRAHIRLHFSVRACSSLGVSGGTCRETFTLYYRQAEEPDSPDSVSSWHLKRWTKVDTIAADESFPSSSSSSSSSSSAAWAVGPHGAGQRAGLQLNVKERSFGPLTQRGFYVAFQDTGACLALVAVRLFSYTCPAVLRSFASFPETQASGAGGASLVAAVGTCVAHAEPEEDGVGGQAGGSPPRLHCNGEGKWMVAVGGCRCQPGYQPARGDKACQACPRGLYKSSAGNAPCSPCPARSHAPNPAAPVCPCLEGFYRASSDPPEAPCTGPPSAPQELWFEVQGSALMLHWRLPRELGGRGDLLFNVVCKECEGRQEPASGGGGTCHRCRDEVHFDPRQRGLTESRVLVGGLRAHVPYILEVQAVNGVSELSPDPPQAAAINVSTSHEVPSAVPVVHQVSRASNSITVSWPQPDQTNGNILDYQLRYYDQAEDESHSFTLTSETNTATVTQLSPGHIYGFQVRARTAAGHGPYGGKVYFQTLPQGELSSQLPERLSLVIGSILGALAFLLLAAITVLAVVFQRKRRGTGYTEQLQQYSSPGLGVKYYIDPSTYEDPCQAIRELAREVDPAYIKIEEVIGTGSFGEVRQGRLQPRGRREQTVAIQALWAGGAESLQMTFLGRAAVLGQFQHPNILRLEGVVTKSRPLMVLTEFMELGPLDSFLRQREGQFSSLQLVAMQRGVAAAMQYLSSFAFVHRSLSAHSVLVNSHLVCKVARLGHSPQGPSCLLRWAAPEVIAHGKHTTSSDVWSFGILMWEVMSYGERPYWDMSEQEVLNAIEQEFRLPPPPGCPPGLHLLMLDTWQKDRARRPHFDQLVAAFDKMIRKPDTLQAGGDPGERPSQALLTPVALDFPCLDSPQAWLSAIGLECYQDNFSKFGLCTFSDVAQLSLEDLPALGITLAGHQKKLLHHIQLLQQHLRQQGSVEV
In words: Selectivity interaction (KinomeScan (DiscoverX)) EUB0000595a EPHB6. The settings on record: at 10 µM.

Test [7] has as its target Tyrosine-protein kinase Fyn (Homo sapiens) (UniProt P06241). The test can be described thus: Selectivity interaction (Kinase panel (KiNativ target engagement assay in Jurkat cells)) EUB0001635a FYN. It is filed as cell-based. The settings on record: Selectivity number of off-targets 0.0, Selectivity number of targets 233.0, Source Knowledge https://www.sciencedirect.com/science/article/pii/S2451945619300674?via%3Dihub, at 1 µM.

The target of test [8] is cAMP-dependent protein kinase catalytic subunit alpha (Homo sapiens, UniProt P17612). In words: Selectivity interaction (KinomeScan (DiscoverX)) EUB0000618a PRKACA. The settings on record: at 10 µM.

Sequence of Serine/threonine-protein kinase Nek4 (Homo sapiens) (P51957 whole entry, looked up): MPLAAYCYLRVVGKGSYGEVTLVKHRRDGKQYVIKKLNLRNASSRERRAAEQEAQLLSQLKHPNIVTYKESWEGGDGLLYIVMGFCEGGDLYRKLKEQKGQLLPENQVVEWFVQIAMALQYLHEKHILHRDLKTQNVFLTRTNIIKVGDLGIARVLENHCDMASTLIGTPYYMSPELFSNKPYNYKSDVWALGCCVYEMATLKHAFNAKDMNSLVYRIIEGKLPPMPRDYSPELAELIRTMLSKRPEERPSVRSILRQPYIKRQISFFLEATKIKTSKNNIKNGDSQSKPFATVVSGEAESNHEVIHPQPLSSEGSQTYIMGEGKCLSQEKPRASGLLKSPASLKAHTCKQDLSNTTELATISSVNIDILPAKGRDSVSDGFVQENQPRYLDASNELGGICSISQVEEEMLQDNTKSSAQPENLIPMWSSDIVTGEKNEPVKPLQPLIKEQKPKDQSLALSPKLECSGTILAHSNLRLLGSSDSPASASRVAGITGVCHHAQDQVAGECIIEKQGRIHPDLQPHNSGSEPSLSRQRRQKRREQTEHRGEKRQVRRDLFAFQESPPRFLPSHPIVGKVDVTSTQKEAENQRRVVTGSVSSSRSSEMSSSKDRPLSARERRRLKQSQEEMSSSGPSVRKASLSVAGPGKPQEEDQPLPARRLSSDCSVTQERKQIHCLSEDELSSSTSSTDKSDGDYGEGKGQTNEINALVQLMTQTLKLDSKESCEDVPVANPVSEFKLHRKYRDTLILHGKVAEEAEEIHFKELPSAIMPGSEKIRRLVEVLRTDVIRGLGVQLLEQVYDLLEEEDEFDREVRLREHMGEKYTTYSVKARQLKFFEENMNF
Sequence of Serine/threonine-protein kinase pim-1 (P11309 whole entry, looked up): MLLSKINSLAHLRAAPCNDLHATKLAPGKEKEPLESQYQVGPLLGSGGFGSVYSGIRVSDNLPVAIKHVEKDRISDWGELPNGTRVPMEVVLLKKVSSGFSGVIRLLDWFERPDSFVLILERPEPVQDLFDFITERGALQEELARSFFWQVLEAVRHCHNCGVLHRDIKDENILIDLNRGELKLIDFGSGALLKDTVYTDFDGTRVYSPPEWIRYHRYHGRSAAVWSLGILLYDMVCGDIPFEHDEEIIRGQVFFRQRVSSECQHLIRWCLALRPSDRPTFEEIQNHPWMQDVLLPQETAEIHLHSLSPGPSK
Sequence of Tyrosine-protein kinase Fyn (Homo sapiens) (P06241 2-537 limits assumed): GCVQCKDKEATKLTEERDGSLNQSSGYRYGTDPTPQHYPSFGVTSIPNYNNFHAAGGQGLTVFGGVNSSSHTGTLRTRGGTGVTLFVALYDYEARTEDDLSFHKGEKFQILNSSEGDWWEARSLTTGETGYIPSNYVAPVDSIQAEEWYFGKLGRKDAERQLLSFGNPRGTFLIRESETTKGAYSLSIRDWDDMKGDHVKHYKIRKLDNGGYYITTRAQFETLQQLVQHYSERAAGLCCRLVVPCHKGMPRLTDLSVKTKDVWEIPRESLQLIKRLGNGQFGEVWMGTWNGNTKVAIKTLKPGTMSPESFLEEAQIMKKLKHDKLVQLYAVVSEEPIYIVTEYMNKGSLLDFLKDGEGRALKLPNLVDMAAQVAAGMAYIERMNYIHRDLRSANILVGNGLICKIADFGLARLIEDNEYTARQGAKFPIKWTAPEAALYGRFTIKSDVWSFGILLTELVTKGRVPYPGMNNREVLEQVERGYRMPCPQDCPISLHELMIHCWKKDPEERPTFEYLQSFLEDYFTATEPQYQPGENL
Sequence of Serine/threonine-protein kinase 35 (Homo sapiens) (Q8TDR2 whole entry): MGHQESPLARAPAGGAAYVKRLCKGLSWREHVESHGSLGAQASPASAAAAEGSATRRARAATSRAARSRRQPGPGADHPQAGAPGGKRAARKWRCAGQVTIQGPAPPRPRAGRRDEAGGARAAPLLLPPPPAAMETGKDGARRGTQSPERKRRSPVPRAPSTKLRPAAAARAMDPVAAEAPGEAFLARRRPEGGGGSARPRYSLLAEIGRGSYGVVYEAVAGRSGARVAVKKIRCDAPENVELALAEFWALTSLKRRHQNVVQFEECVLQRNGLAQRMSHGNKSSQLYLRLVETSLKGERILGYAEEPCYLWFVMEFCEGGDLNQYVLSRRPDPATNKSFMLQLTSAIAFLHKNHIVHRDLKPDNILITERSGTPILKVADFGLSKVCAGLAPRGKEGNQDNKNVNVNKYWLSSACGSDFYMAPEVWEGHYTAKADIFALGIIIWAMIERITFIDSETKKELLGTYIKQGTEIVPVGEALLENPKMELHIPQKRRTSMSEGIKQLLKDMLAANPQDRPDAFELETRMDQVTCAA

As for `CC(=O)Nc1cccc(-n2c(=O)n(C3CC3)c(=O)c3c(Nc4ccc(I)cc4F)n(C)c(=O)c(C)c32)c1`, in test [1], the % of control was 94%. The molecule `COc1cc(Nc2nc(C)cc(-c3cnn4nc(OC)ccc34)n2)cc(C(F)(F)F)c1` returned a % of control in test [2] of 100%. Molecule `Cc1cnc(Nc2ccc(F)cc2Cl)nc1-c1c[nH]c(C(=O)N[C@H](CO)c2cccc(Cl)c2)c1` returned a % of inhibition in test [3] of 9%. Consider `CNC(=O)Nc1ccc(-c2nc(N3CC4CCC(C3)O4)c3cnn(C4CCC5(CC4)OCCO5)c3n2)cc1`, for which the % of control in test [4] turned out to be 95%. In test [5], this molecule had a % of inhibition of 7%. In turn, `COCC(=O)NC/C=C/c1ccc2ncnc(Nc3ccc(Oc4ccc(C)nc4)c(C)c3)c2c1` [CP-724714] showed a % of control in test [6] of 74%. As for `C=CC(=O)Nc1ccc(C(=O)Nc2[nH]nc3c2CN(C(=O)N[C@H](CN(C)C)c2ccccc2)C3(C)C)cc1`, in test [7], the % of engagement is 6.2%. In turn, `O[C@H]1CC[C@H](Nc2ncc3nc(Nc4c(F)cc(F)cc4F)n([C@H]4CCOC4)c3n2)CC1` showed a % of control in test [8] of 100%.
